Data from paper PMC4965013, “Open Source Drug Discovery with the Malaria Box Compound Collection for Neglected Diseases and Beyond” (PLoS Pathogens, 2016).
One block for each compound: values may come before it.

What was measured:
P. falciparum = assay: EC50 listed in S2 Table Metabolomics (used to set the concentration tested); type: cell-based; details: Plasmodium falciparum; EC50 used for Factor_XEC50 in metabolomics; read-out: EC50_nM
[1] = tested on: P. falciparum 3D7 trophozoites; assay: Metabolomic fingerprint profiling LC-MS; type: cell-based, Plasmodium falciparum; parameters: UDP-D-glucose / ADP-D-glucose: unit not given here; details: for Acetyllysine / N-acetyl-L-ornithine / N-carbamoyl-L-aspartate / NADPH / dAMP / dCMP / dTDP / dTMP / dTTP / dihydroorotate / orotate / DLH / DLS/SDL/SID / PD / PEE / PVNF / 3-phosphoglycerate / ADP-D-glucose / ATP / CDP / D-sedoheptulose-1/7-phosphate / FAD / GMP / NAD+ / NADP+ / Octoluse Bisphosphate / Pyroglutamic acid / UDP-D-glucose / UDP-D-glucuronate / UDP-N-acetyl-glucosamine / UDP / UMP / UTP / a-ketoglutarate / citrate/isocitrate / cytidine / dATP / dGMP/AMP / fumarate / glucose-1/6-phosphate / glycerate / guanine / guanosine / hypoxanthine / indole / inosine / nicotinate / ornithine / phosphoenolpyruvate / pyruvate / ribose-phosphate / sarcosine/alanine / sn-glycerol-3-phosphate / succinate/methylmalonic acid / uridine / xanthosine: S2 Table Metabolomics; for Acetyllysine: metabolite Acetyllysine; for N-acetyl-L-ornithine: metabolite N-acetyl-L-ornithine; for N-carbamoyl-L-aspartate: metabolite N-carbamoyl-L-aspartate; for NADPH: metabolite NADPH; for dAMP: metabolite dAMP; for dCMP: metabolite dCMP; for dTDP: metabolite dTDP; for dTMP: metabolite dTMP; for dTTP: metabolite dTTP; for dihydroorotate: metabolite dihydroorotate; for orotate: metabolite orotate; for DLH: peptide DLH; for DLS/SDL/SID: peptide DLS/SDL/SID; for PD: peptide PD; for PEE: peptide PEE; for PVNF: peptide PVNF; for 3-phosphoglycerate: metabolite 3-phosphoglycerate; for ADP-D-glucose: metabolite ADP-D-glucose; for ATP: metabolite ATP; for CDP: metabolite CDP; for CDP / D-sedoheptulose-1/7-phosphate / GMP / Octoluse Bisphosphate / UDP / UMP / UTP / citrate/isocitrate / dGMP/AMP / fumarate / glucose-1/6-phosphate / glycerate / guanine / guanosine / inosine / pyruvate / sarcosine/alanine / succinate/methylmalonic acid / uridine / xanthosine: change in metabolite level after compound treatment; for D-sedoheptulose-1/7-phosphate: metabolite D-sedoheptulose-1/7-phosphate; for FAD: metabolite FAD; for GMP: metabolite GMP; for NAD+: metabolite NAD+; for NADP+: metabolite NADP+; for Octoluse Bisphosphate: metabolite Octoluse Bisphosphate; for Pyroglutamic acid: metabolite Pyroglutamic acid; for UDP-D-glucose: metabolite UDP-D-glucose; for UDP-D-glucuronate: metabolite UDP-D-glucuronate; for UDP-N-acetyl-glucosamine: metabolite UDP-N-acetyl-glucosamine; for UDP: metabolite UDP; for UMP: metabolite UMP; for UTP: metabolite UTP; for a-ketoglutarate: metabolite a-ketoglutarate; for citrate/isocitrate: metabolite citrate/isocitrate; for cytidine: metabolite cytidine; for dATP: metabolite dATP; for dGMP/AMP: metabolite dGMP/AMP; for fumarate: metabolite fumarate; for glucose-1/6-phosphate: metabolite glucose-1/6-phosphate; for glycerate: metabolite glycerate; for guanine: metabolite guanine; for guanosine: metabolite guanosine; for hypoxanthine: metabolite hypoxanthine; for indole: metabolite indole; for inosine: metabolite inosine; for 2_3-Diphosphoglyceric acid / 4-phosphopantothenate / 6-phospho-D-gluconate / FMN / IMP / Pyrophosphate / Sedoheptoluse bisphosphate / cyclic-AMP / glutathione disulfide / lactate / myo-inositol: metabolite level change after treatment; for nicotinate: metabolite nicotinate; for ornithine: metabolite ornithine; for phosphoenolpyruvate: metabolite phosphoenolpyruvate; for pyruvate: metabolite pyruvate; for ribose-phosphate: metabolite ribose-phosphate; for sarcosine/alanine: metabolite sarcosine/alanine; for sn-glycerol-3-phosphate: metabolite sn-glycerol-3-phosphate; for succinate/methylmalonic acid: metabolite succinate/methylmalonic acid; for uridine: metabolite uridine; for xanthosine: metabolite xanthosine

- EC50 (P. falciparum): 396 nM
SMILES: Cc1ccc(-c2cc3nc4c(c(O)n3n2)CCCC4)cc1 [MMV006937]
- Acetyllysine [1]: 0.001543
- N-acetyl-L-ornithine [1]: -0.1685
- N-carbamoyl-L-aspartate [1]: 1.991
- NADPH [1]: -0.4265
- dAMP [1]: -0.0863
- dCMP [1]: -1.279
- dTDP [1]: -1.586
- dTMP [1]: -1.181
- dTTP [1]: -2.058
- dihydroorotate [1]: 2.759
- orotate [1]: -1.871
- DLH [1]: -0.331
- DLS/SDL/SID [1]: -0.7353
- PD [1]: 0.3712
- PEE [1]: -0.2807
- PVNF [1]: -1.612
- 3-phosphoglycerate [1]: -0.6487
- ADP-D-glucose [1]: -0.1406
- ATP [1]: -0.4135
- CDP [1]: -1.006
- D-sedoheptulose-1/7-phosphate [1]: 0.1087
- FAD [1]: 0.1332
- GMP [1]: -0.07362
- NAD+ [1]: 1.3162
- NADP+ [1]: -0.2641
- Octoluse Bisphosphate [1]: -0.3
- Pyroglutamic acid [1]: -0.3275
- UDP-D-glucose [1]: -0.04224
- UDP-D-glucuronate [1]: -0.6063
- UDP-N-acetyl-glucosamine [1]: -0.2962
- UDP [1]: -1.454
- UMP [1]: -1.3
- UTP [1]: -2.161
- a-ketoglutarate [1]: -0.5175
- citrate/isocitrate [1]: -0.9752
- cytidine [1]: 0.2747
- dATP [1]: 0.08499
- dGMP/AMP [1]: -0.2088
- fumarate [1]: 0.7624
- glucose-1/6-phosphate [1]: -0.09446
- glycerate [1]: 0.7002
- guanine [1]: 0.3064
- guanosine [1]: 0.2389
- hypoxanthine [1]: -0.05386
- indole [1]: -0.1272
- inosine [1]: -0.07571
- 2_3-Diphosphoglyceric acid [1]: -0.6436
- 4-phosphopantothenate [1]: -0.3901
- 6-phospho-D-gluconate [1]: -0.1214
- FMN [1]: -0.5746
- IMP [1]: 0.1416
- Pyrophosphate [1]: -0.6696
- Sedoheptoluse bisphosphate [1]: 0.01407
- cyclic-AMP [1]: -0.2332
- glutathione disulfide [1]: 0.02779
- lactate [1]: -0.3487
- myo-inositol [1]: 0.03438
- nicotinate [1]: -0.2273
- ornithine [1]: -0.08655
- phosphoenolpyruvate [1]: -0.5043
- pyruvate [1]: -0.2395
- ribose-phosphate [1]: 0.1461
- sarcosine/alanine [1]: 0.1551
- sn-glycerol-3-phosphate [1]: -0.1355
- succinate/methylmalonic acid [1]: -0.2134
- uridine [1]: -0.8059
- xanthosine [1]: -0.1801

- EC50 (P. falciparum): 370 nM
SMILES: CCOc1cc2c(cc1OCC)C(c1cc(OC)c(O)cc1Cl)NCC2 (stereo not shown) [MMV008956]
- Acetyllysine [1]: -0.8944
- N-acetyl-L-ornithine [1]: -0.5916
- N-carbamoyl-L-aspartate [1]: 0.571
- NADPH [1]: 0.6672
- dAMP [1]: 1.243
- dCMP [1]: 4.619
- dTDP [1]: 1.146
- dTMP [1]: 1.439
- dTTP [1]: 1.156
- dihydroorotate [1]: 1.1855
- orotate [1]: -0.3284
- DLH [1]: -3.711
- DLS/SDL/SID [1]: -0.5828
- PD [1]: -0.4938
- PEE [1]: -0.813
- PVNF [1]: -0.872
- 3-phosphoglycerate [1]: 0.6004
- ADP-D-glucose [1]: 0.1393
- ATP [1]: 0.8747
- CDP [1]: 1.061
- D-sedoheptulose-1/7-phosphate [1]: 0.1684
- FAD [1]: 0.6779
- GMP [1]: -0.4979
- NAD+ [1]: 0.03875
- NADP+ [1]: 0.5626
- Octoluse Bisphosphate [1]: 0.08662
- Pyroglutamic acid [1]: 0.4321
- UDP-D-glucose [1]: 0.1438
- UDP-D-glucuronate [1]: 0.2178
- UDP-N-acetyl-glucosamine [1]: 0.5265
- UDP [1]: 1.214
- UMP [1]: 0.03068
- UTP [1]: 0.582
- a-ketoglutarate [1]: -0.2514
- citrate/isocitrate [1]: -0.7004
- cytidine [1]: 0.5985
- dATP [1]: 0.6577
- dGMP/AMP [1]: 0.5512
- fumarate [1]: -0.2713
- glucose-1/6-phosphate [1]: 2.3505
- glycerate [1]: 0.6776
- guanine [1]: 0.5662
- guanosine [1]: -1.286
- hypoxanthine [1]: 0.3973
- indole [1]: -0.009638
- inosine [1]: -0.3408
- 2_3-Diphosphoglyceric acid [1]: 1.008
- 4-phosphopantothenate [1]: 0.721
- 6-phospho-D-gluconate [1]: 0.8262
- FMN [1]: 0.6429
- IMP [1]: 0.4913
- Pyrophosphate [1]: -0.1587
- Sedoheptoluse bisphosphate [1]: 0.3697
- cyclic-AMP [1]: 0.7848
- glutathione disulfide [1]: 0.5413
- lactate [1]: 1.983
- myo-inositol [1]: 3.051
- nicotinate [1]: 0.3445
- ornithine [1]: -0.06192
- phosphoenolpyruvate [1]: 0.186
- pyruvate [1]: 0.4759
- ribose-phosphate [1]: 0.1544
- sarcosine/alanine [1]: -0.3792
- sn-glycerol-3-phosphate [1]: 0.3263
- succinate/methylmalonic acid [1]: -0.2652
- uridine [1]: 0.5193
- xanthosine [1]: -1.526
